assay: recombinant barcode read abundance after kanamycin selection (control-corrected) (log10(CPM+1)); higher = more efficient recombination; sequences stand for … in AGTGCAGAGAAAATCGGCCAGTTTTCTCTGCCTGCAGTCCGCATGCCGT…AGATTTATGCAGCGGACTGCCTTTCTCCCAAAGTGATAAACCGGACAGTATCATGGACCGGTTTTCCCGGTAATCCGTATTTGCAAGGTTGGTTTCACT; site = the 11-nt target
How it was run: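 Pooled E. coli screen pairing targets with IS621 bridge RNA target-binding loops. Each oligo (promoter, target, barcode, J23119-driven first 104 bridge RNA bases) was Gibson-cloned into a vector with the remaining 73 bp and T7-inducible recombinase, then co-electroporated with a donor plasmid. Two replicates each were plated on chloramphenicol/ampicillin LB agar (control) or chloramphenicol/ampicillin/kanamycin with 0.1 mM IPTG. Recombination efficiency is recombinant-junction barcode counts as CPM, averaged, control-corrected, reported as log10(CPM+1).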
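Also: IS621 recombinase and bridge RNA in Escherichia coli cells.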

First: ATCAAAGCTTGGGTTCTAACCTGTTGCCT (site ATCACAGCTAG)
Second: ATCAAGCCTTGGGTTCTAACCTGTTGCAG (site ATCAAGCCTCT)
The “recombinant barcode read abundance (log10)” value of the first is lower: 0.156 for the first, 1.83 for the second.

“ATCAAGCCTTGGGTTCTAACCTGTTGCAG (site TATCCCTCTAG)” and “ATCAAGCCTTGGGTTCTAACCTGTTGCTT (site ATCAAGCCTAA)” are within 0.2 log units of each other in “recombinant barcode read abundance (log10)” value: 0.0814 for the first, 0.102 for the second.

Going from “ATCAAGCCTTGGGTTCTAACCTGTTGCTT (site ATGAAGCCTAA)” to “ATCATAGCTTGGGTTCTAACCTGTTGCGC (site ATCATAGCTGC)”, the “recombinant barcode read abundance (log10)” value rises from 0.122 to 0.504.

“ATCATAGCTTGGGTTCTAACCTGTTGCGC (site CCATACCCTTA)” and “ATCATTCCTTGGGTTCTAACCTGTTGCCT (site AACATACCTAG)” are within 0.2 log units of each other in “recombinant barcode read abundance (log10)” value: 0.0517 for the first, 0.237 for the second.

Going from “ATCATTCCTTGGGTTCTAACCTGTTGCCT (site ATCATTCCTAG)” to “ATCCTTACTTGGGTTCTAACCTGTTGCCT (site AACCTTACTAG)”, the “recombinant barcode read abundance (log10)” value falls from 0.542 to 0.247.

“ATCCTTACTTGGGTTCTAACCTGTTGCCT (site ACCCTTACTAG)” and “ATCCTTACTTGGGTTCTAACCTGTTGCCT (site AGCCTTACTAG)” are within 0.2 log units of each other in “recombinant barcode read abundance (log10)” value: 0.136 for the first, 0.156 for the second.

Compared with “ATCCTTACTTGGGTTCTAACCTGTTGCCT (site ATCCTTACTAG)”, “ATCGCTTCTTGGGTTCTAACCTGTTGCCT (site AACGCTTCTAG)” is lower in “recombinant barcode read abundance (log10)” value: 1.16 for the first, 0.246 for the second.

“ATCGCTTCTTGGGTTCTAACCTGTTGCCT (site ACCGCTTCTAG)” and “ATCGCTTCTTGGGTTCTAACCTGTTGCCT (site AGCGCTTCTAG)” are within 0.2 log units of each other in “recombinant barcode read abundance (log10)” value: 0.272 for the first, 0.432 for the second.

“ATCGCTTCTTGGGTTCTAACCTGTTGCCT (site ATCGCTTCTAG)” and “ATCGGACCTTGGGTTCTAACCTGTTGCCT (site ATCGGAACTAG)” are within 0.2 log units of each other in “recombinant barcode read abundance (log10)” value: 0.0338 for the first, 0.0754 for the second.

First: ATCGGACCTTGGGTTCTAACCTGTTGCCT (site ATCGGACCTAG)
Second: ATCGGACCTTGGGTTCTAACCTGTTGCCT (site ATCGGAGCTAG)
The “recombinant barcode read abundance (log10)” value of the first is higher: 1.23 for the first, 0.206 for the second.

“ATCGGACCTTGGGTTCTAACCTGTTGCCT (site ATCGGATCTAG)” and “ATCGGAGCTTGGGTTCTAACCTGTTGCCT (site ATCGGAACTAG)” are within 0.2 log units of each other in “recombinant barcode read abundance (log10)” value: 0.107 for the first, 0.196 for the second.

Going from “ATCGGAGCTTGGGTTCTAACCTGTTGCCT (site ATCGGACCTAG)” to “ATCGGAGCTTGGGTTCTAACCTGTTGCCT (site ATCGGAGCTAG)”, the “recombinant barcode read abundance (log10)” value rises from 0.0265 to 0.775.

“ATCGGAGCTTGGGTTCTAACCTGTTGCCT (site ATCGGATCTAG)” and “ATCGTACCTTGGGTTCTAACCTGTTGCTG (site ATCCTACCTAA)” are within 0.2 log units of each other in “recombinant barcode read abundance (log10)” value: 0.181 for the first, 0.167 for the second.

“ATCGTACCTTGGGTTCTAACCTGTTGCTG (site ATCGTACCTCA)” and “ATCTGTTCTTGGGTTCTAACCTGTTGCCT (site ACCTGTGCTAG)” are within 0.2 log units of each other in “recombinant barcode read abundance (log10)” value: 0.123 for the first, 0.108 for the second.

Going from “ATCTGTTCTTGGGTTCTAACCTGTTGCCT (site ATCTGTTCTAG)” to “ATCTTAGCTTGGGTTCTAACCTGTTGCCT (site ATCTTAACTAG)”, the “recombinant barcode read abundance (log10)” value falls from 0.327 to 0.0917.

“ATCTTAGCTTGGGTTCTAACCTGTTGCCT (site ATCTTACCTAG)” and “ATCTTAGCTTGGGTTCTAACCTGTTGCCT (site ATCTTAGCTAG)” are within 0.2 log units of each other in “recombinant barcode read abundance (log10)” value: 0.141 for the first, 0.266 for the second.

“ATCTTAGCTTGGGTTCTAACCTGTTGCCT (site ATCTTATCTAG)” and “ATCTTGTCTTGGGTTCTAACCTGTTGCCG (site ATCTTGTCTAG)” are within 0.2 log units of each other in “recombinant barcode read abundance (log10)” value: 0.197 for the first, 0.264 for the second.

First: ATCTTGTCTTGGGTTCTAACCTGTTGCCG (site ATCTTGTCTCG)
Second: ATCTTGTCTTGGGTTCTAACCTGTTGCGG (site ATCTTGTCTCC)
The “recombinant barcode read abundance (log10)” value of the first is lower: 0.0848 for the first, 1.83 for the second.

First: ATCTTGTCTTGGGTTCTAACCTGTTGCGG (site CATGATACTAG)
Second: ATGAATGCTTGGGTTCTAACCTGTTGCCT (site ATGAATGCTAG)
The “recombinant barcode read abundance (log10)” value of the first is lower: 0.102 for the first, 1.78 for the second.

First: ATGAATGCTTGGGTTCTAACCTGTTGCCT (site ATGATTGCTAG)
Second: ATGACCTCTTGGGTTCTAACCTGTTGCCT (site ATGACCTCTAG)
The “recombinant barcode read abundance (log10)” value of the first is lower: 0.0173 for the first, 1.46 for the second.

Compared with “ATGACCTCTTGGGTTCTAACCTGTTGCCT (site ATGCCCTCTAG)”, “ATGACCTCTTGGGTTCTAACCTGTTGCCT (site ATGGCCTCTAG)” is higher in “recombinant barcode read abundance (log10)” value: 0.0297 for the first, 0.46 for the second.

Going from “ATGACCTCTTGGGTTCTAACCTGTTGCCT (site ATGTCCTCTAG)” to “ATGAGAACTTGGGTTCTAACCTGTTGCCG (site ATGAGAACTAG)”, the “recombinant barcode read abundance (log10)” value rises from 0.0902 to 1.58.

First: ATGAGAACTTGGGTTCTAACCTGTTGCCG (site ATGAGAACTCG)
Second: ATGAGGACTTGGGTTCTAACCTGTTGCGT (site ATGAGGACTAC)
The “recombinant barcode read abundance (log10)” value of the first is lower: 1.05 for the first, 2.45 for the second.

First: ATGAGGACTTGGGTTCTAACCTGTTGCGT (site CACCCCTCTCG)
Second: ATGAGGCCTTGGGTTCTAACCTGTTGCCT (site ATGAGGCCTAG)
The “recombinant barcode read abundance (log10)” value of the first is lower: 0.14 for the first, 0.858 for the second.

“ATGAGGCCTTGGGTTCTAACCTGTTGCCT (site CTGAGGCCTAG)” and “ATGAGGCCTTGGGTTCTAACCTGTTGCCT (site GTGAGGCCTAG)” are within 0.2 log units of each other in “recombinant barcode read abundance (log10)” value: 0.115 for the first, 0.173 for the second.

Compared with “ATGAGGCCTTGGGTTCTAACCTGTTGCCT (site TTGAGGCCTAG)”, “ATGCAAGCTTGGGTTCTAACCTGTTGCCT (site ATGCAAACTAG)” is higher in “recombinant barcode read abundance (log10)” value: 0.209 for the first, 0.898 for the second.

Going from “ATGCAAGCTTGGGTTCTAACCTGTTGCCT (site ATGCAACCTAG)” to “ATGCAAGCTTGGGTTCTAACCTGTTGCCT (site ATGCAAGCTAG)”, the “recombinant barcode read abundance (log10)” value rises from 0.0657 to 1.48.

“ATGCAAGCTTGGGTTCTAACCTGTTGCCT (site ATGCAATCTAG)” and “ATGCATCCTTGGGTTCTAACCTGTTGCCT (site AAGCATCCTAG)” are within 0.2 log units of each other in “recombinant barcode read abundance (log10)” value: 0.234 for the first, 0.0651 for the second.

“ATGCATCCTTGGGTTCTAACCTGTTGCCT (site ACGCATCCTAG)” and “ATGCATCCTTGGGTTCTAACCTGTTGCCT (site AGGCATCCTAG)” are within 0.2 log units of each other in “recombinant barcode read abundance (log10)” value: 0.0924 for the first, 0 for the second.

First: ATGCATCCTTGGGTTCTAACCTGTTGCCT (site ATGCATCCTAG)
Second: ATGCCATCTTGGGTTCTAACCTGTTGCCT (site ATACCATCTAG)
The “recombinant barcode read abundance (log10)” value of the first is higher: 1.99 for the first, 0.434 for the second.

Compared with “ATGCCATCTTGGGTTCTAACCTGTTGCCT (site ATCCCATCTAG)”, “ATGCCATCTTGGGTTCTAACCTGTTGCCT (site ATGCCATCTAG)” is lower in “recombinant barcode read abundance (log10)” value: 0.885 for the first, 0.503 for the second.

Compared with “ATGCCATCTTGGGTTCTAACCTGTTGCCT (site ATTCCATCTAG)”, “ATGGACACTTGGGTTCTAACCTGTTGCGT (site ATGGACACTAC)” is higher in “recombinant barcode read abundance (log10)” value: 0.149 for the first, 1.93 for the second.

“ATGGACACTTGGGTTCTAACCTGTTGCGT (site GACTGGCCTCT)” and “ATGGCGCCTTGGGTTCTAACCTGTTGCCT (site AAGGCGCCTAG)” are within 0.2 log units of each other in “recombinant barcode read abundance (log10)” value: 0.133 for the first, 0.296 for the second.

Compared with “ATGGCGCCTTGGGTTCTAACCTGTTGCCT (site ACGGCGCCTAG)”, “ATGGCGCCTTGGGTTCTAACCTGTTGCCT (site AGGGCGCCTAG)” is lower in “recombinant barcode read abundance (log10)” value: 0.846 for the first, 0.183 for the second.

Going from “ATGGCGCCTTGGGTTCTAACCTGTTGCCT (site ATGGCGCCTAG)” to “ATTAAGTCTTGGGTTCTAACCTGTTGCCT (site AATAAGTCTAG)”, the “recombinant barcode read abundance (log10)” value falls from 0.856 to 0.0662.

“ATTAAGTCTTGGGTTCTAACCTGTTGCCT (site ACTAAGTCTAG)” and “ATTAAGTCTTGGGTTCTAACCTGTTGCCT (site AGTAAGTCTAG)” are within 0.2 log units of each other in “recombinant barcode read abundance (log10)” value: 0.08 for the first, 0.0808 for the second.

Going from “ATTAAGTCTTGGGTTCTAACCTGTTGCCT (site ATTAAGTCTAG)” to “ATTAGGACTTGGGTTCTAACCTGTTGCTG (site ATTAGGACTCA)”, the “recombinant barcode read abundance (log10)” value rises from 0.359 to 2.12.

First: ATTAGGACTTGGGTTCTAACCTGTTGCTG (site ATTAGGACTCT)
Second: ATTCAGACTTGGGTTCTAACCTGTTGCGG (site ATCCAGGCTCC)
The “recombinant barcode read abundance (log10)” value of the first is higher: 1.56 for the first, 0.113 for the second.

With “ATTCAGACTTGGGTTCTAACCTGTTGCGG (site ATTCAGACTCC)” the “recombinant barcode read abundance (log10)” value was 2.33.
